Experimental data as given in US9796659B2, “Derivatives of polyhydroxy compounds” (RATIOPHARM GMBH, priority 2014, dated 2017).
Structures can show the parent of a compound that is named as a salt.

Key:
Caco-2 monolayers = assay: in vitro; conditions: for permeability category compared to the reference molecules: Caco-2
Protocol: (§1) The membrane permeability was investigated in Caco-2 monolayers. DMF was investigated in a separate experiment for comparison.
(§2) […] The test concentration in the apical medium was 250 μM. […] Furthermore, a significant metabolism or degradation of the test compound was expected and therefore the parent compound as well as MMF was determined in the acceptor compartment (basolateral medium). Sampling time points were 15, 45 and 90 min.

in vitro = conditions: human; for recovery at 90 min, 250 μM / recovery at 90 min: Caco-2, Recovery [%] mean ± s.d.
Protocol: as §1, §2

[1] = In vivo pharmacokinetics of MMF after p.o. administration; parameters: species or system female NMRI mice; conditions: female, NMRI, mouse, po, 49.4 mg/kg
Protocol: The pharmacokinetics of MMF after administration of Example 7 and DMF for comparison was investigated in female NMRI mice (3 animals per group). The test compound was dissolved in DMSO/PEG300 (20/80) and administered p.o. (gavage) at a dose volume of 10 ml/kg. DMF was given at a dose of 45 mg/kg. The test compound was dosed at a MMF-equivalent dose, i.e. 49.4 mg/kg. Blood samples were taken at 0.25, 0.5, 1.0, 2.0, 4.0, 6.0 and 8.0 h after drug administration.
Pharmacokinetic parameters, derived by non-compartmental analysis for test compound

[2] = test system: MOG35-55-induced experimental autoimmune encephalomyelitis (EAE); assay: MOG35-55-induced experimental autoimmune encephalomyelitis (EAE) in the mouse; assay type: in vivo, male C57BL/6 mice; conditions: prophylactic treatment from day 1; observations day 1 to 13; dose formulation 11.54 mM, 10 ml/kg
Protocol: The pharmacological efficacy was investigated in experimental autoimmune encephalomyelitis (EAE) in the mouse.
The experiments were performed as follows: male C57BL/6 mice, 12 weeks old, 10 animals per treatment group, were used. On day 1, animals were immunized by sub-cutaneous injection of MOG35-55, which was mixed in complete Freund's adjuvants. On the same day as well as on day 3 the animals received a sub-cutaneous injection of Pertussis-toxin.
Assessment and comparison of the efficacy of compounds of the invention and DMF (reference) in MOG35-55-induced experimental autoimmune encephalomyelitis (EAE) in C57BL/6 mice. • Test system: male C57BL/6 mice, 12 weeks old; 10 animals per treatment group; • Induction of EAE: Day 1—subcutaneous injection of MOG35-55, suspended in complete Freund's adjuvants and intraperitoneal injection of pertussis toxin. • Day 3—intraperitoneal injection of pertussis toxin. • Treatment: Dimethylfumarate and test substances or vehicle only were administered via oral and intravenous route. For oral administration, test substances were dissolved or suspended in 0.5% hydroxyethylcellulose (dissolved in 50 mM potassium dihydrogenphosphate, pH 5.0). […]

[3] = Caco-2, Papp × 10^−6 [cm/sec] mean ± s.d.

COC(=O)/C=C/C(=O)OCC(O)COC(=O)/C=C/C(=O)OC [Example 7, (E)-But-2-enedioic acid 2-hydroxy-3-((E)-3-methoxycarbonyl-acryloyloxy)-propyl ester methyl ester]
permeability category compared to the reference molecules (Caco-2 monolayers): moderate permeability
Papp A→B at 90 min, 250 μM (in vitro; [3]): 2.5 ± 0.2 ×10⁻⁶ cm/s
recovery at 90 min, 250 μM (in vitro): 18.3%
Tmax of MMF [1]: 15 min

COC(=O)/C=C/C(=O)OC [DMF, Dimethyl fumarate]
permeability category compared to the reference molecules (Caco-2 monolayers): moderate permeability
Papp A→B at 90 min, 250 μM (in vitro; [3]): 1.8 ± 0.2 ×10⁻⁶ cm/s
recovery at 90 min, 250 μM (in vitro): 11.6%
body weight [2]: remained stable
clinical symptoms (clinical score, grade 0-10) [2]: protected from the development of clinical symptoms

C[C@]12CC[C@H]3[C@@H](CCC4=CC(=O)CC[C@@]43C)[C@@H]1CC[C@@H]2O [Testosterone, testosterone]
Recovery [%] mean ± s.d. (Caco-2 monolayers; direction a-b): 62.5 ± 2.1%
Recovery [%] mean ± s.d. (Caco-2 monolayers; direction b-a): 76.1 ± 4.5%
recovery at 90 min, 250 μM (in vitro; direction a-b): 67.3 ± 1.2%
recovery at 90 min (in vitro; direction b-a): 94.9 ± 0.9%

CC[C@H]1OC(=O)[C@H](C)[C@@H](O[C@H]2C[C@@](C)(OC)[C@@H](O)[C@H](C)O2)[C@H](C)[C@@H](O[C@@H]2O[C@H](C)C[C@H](N(C)C)[C@H]2O)[C@](C)(O)C[C@@H](C)C(=O)[C@H](C)[C@@H](O)[C@]1(C)O [Erythromycin, erythromycin]
Efflux ratio (b-a/a-b) (Caco-2 monolayers; human, Caco-2, 90 min): 100.8
Papp × 10^−6 [cm/sec] mean ± s.d. (Caco-2 monolayers; human, Caco-2, 90 min): 11.5 ± 0.5 10^−6 cm/sec
Recovery [%] mean ± s.d. (Caco-2 monolayers; human, Caco-2, 90 min): 89.1 ± 8.5%
Papp × 10^−6 [cm/sec] mean ± s.d. (Caco-2 monolayers; human, Caco-2, 90 min, 250 μM): 0.1 ± 0.2 10^−6 cm/sec
Recovery [%] mean ± s.d. (Caco-2 monolayers; human, Caco-2, 90 min, 250 μM): 91.0 ± 1.9%
efflux ratio at 90 min (in vitro; Caco-2, Efflux ratio (b-a/a-b)): 55.9
Papp A→B at 90 min, 250 μM (in vitro; [3]): 0.2 ± 0.02 ×10⁻⁶ cm/s
Papp B→A at 90 min (in vitro; [3]): 12.3 ± 0.4 ×10⁻⁶ cm/s
recovery at 90 min (in vitro): 99.9 ± 2.4%
recovery at 90 min, 250 μM (in vitro): 108 ± 2.2%
